Where two headings read alike, the source gives them in different places.
What was measured:
Type in all cases: cell-based
[1] = test system: human keratinocytes; test: DNA synthesis (3H thymidine incorporation) in keratinocytes in choline-free medium; conditions: Keratinocyte
Procedure: (§1) Human keratinocytes, isolated from neonatal foreskin by trypsin treatment were grown in Dulbecco Modification Eagle (DME) Hams F12 (3:1) medium/5% fetal calf serum in the presence of mitomycin C treated 3T3 mouse fibroblasts for establishing dividing keratinocyte colonies. Cells were grown under the above condition until their second passage and kept frozen for future use. Frozen second passage keratinocytes were thawed and plated into the above medium and grown for five days. On day 5, when the cells were 70-80% confluent, they were trypsinized and plated in the serum-free medium for the various experiments.
(§2) The incorporation of ^3 H-thymidine by cultured keratinocytes was used as an assay of keratinocyte proliferation. Thymidine is one of four deoxynucleosides which are the monomeric units of DNA, the universal library of genetic information in the animal kingdom. Prior to cell division of a somatic cell such as a keratinocyte, the complete genome of the cell undergoing cell division is replicated. This involves large scale DNA synthesis by the cell and enables both daughter cells to receive identical copies of the genetic material. When ^3 H-thymidine is included in the culture media of keratinocytes which are synthesizing DNA in preparation for cell division then the labelled nucleoside is incorporated into the newly synthesized DNA. The extent of incorporation of ^3 H-thymidine into a population of cells is proportional to the rate of DNA synthesis by this population of cells and therefore an indication of their cellular proliferation.
(§3) 4. The medium was aspirated, and the wells washed with 1 ml phosphate-buffered saline. The DNA and proteins of the cells in the plate were then precipitated by adding 1 ml of ice-cold 10% trichloroacetic acid (TCA). The plates were left on ice for 30 minutes to complete the precipitation process. TCA was then aspirated and each well was then washed four times with 5% TCA. The plates were then dried on a filter pad and the cells in the wells were dissolved in 0.5 ml of 0.1N sodium hydroxide. The sodium hydroxide was then neutralized using 0.1N hydrochloric acid and the solution (1 ml total volume) was then transferred to a scintillation vial. 50 μl samples from each vial were used for protein assay using BCA protein assay reagent obtained from Pierce Chemical Company. 8 ml of a scintillation fluid (Ecolume) was added to the rest of the solution in the vial, and the vials were counted in a scintillation counter to determine the amount of radioactivity in each vial. The DNA synthesis rate was then calculated as cpm ^3 H thymidine incorporated into total cellular DNA/microgram of cell protein for each individual well. Mean and standard deviation for each group was also calculated.
(§4) The aged epidermis may be choline deficient due to the decreased capillary circulation to the skin. To simulate the choline-deficient in vitro system, keratinocytes were plated in complete medium and 48 hours later switched to choline-free medium. The cells were then grown for five days in the choline-free medium with or without addition of different amounts of choline or TCC. To determine whether TCC can provide choline for keratinocyte proliferation under these conditions, on day 5, the amount of ^3 H thymidine incorporation into DNA was determined as in the previous experiment. The protein content of the wells were also quantitated. Both these parameters were expressed as % of control ±SD.

[2] = test system: human keratinocytes; test: DNA synthesis in keratinocytes (3H-thymidine incorporation, keratinocyte proliferation); conditions: Homo sapiens, Keratinocyte; for activity at 0.1 µM / activity at 1 µM / activity at 10 µM / activity at 100 µM / activity at 1000 µM / activity at 10000 µM: read-out: Rate of DNA synthesis; for minimal effective concentration: read-out: concentration at which inhibitory to DNA synthesis
Source text: as §2
1. Normal human keratinocytes isolated from neonatal foreskins by trypsin treatment were grown in DME medium/5% fetal calf serum in the presence of mitomycin C treated 3T3 mouse fibroblasts for establishing dividing keratinocyte colonies. Keratinocytes were grown under the above condition until their third passage.
2. For the experiments, third passage keratinocytes were plated into a serum-free keratinocyte growth medium (KGM; obtained from Clonetics, San Diego, Calif.) containing 0.09 mM calcium. 20,000 to 30,000 cells were plated into each well of 24 well cell culture plates and grown for 5 days, until the cells reach about 80% confluence.
3. Medium was changed to fresh medium and the various test materials were added to the medium from an ethanolic stock solution. The final ethanol concentration in the cultures was kept below 0.2%. Control cultures received no tested material but were dosed with 0.2% ethanol. Each compound or combination was tested in three separate wells. In four hours, 1 uCi of ^3 H-thymidine (Amersham Corp., Sp activity 40 Ci/mmol) was added to the 1 ml medium in each well. The cells were incubated overnight and 24 hours later the amount of ^3 H-thymidine associated with the cellular DNA of keratinocytes was assessed as described below.
as §3, with “well.” for “well. Mean and standard deviation for each group was also calculated.”

[3] = test system: human keratinocytes; test: cells; conditions: Keratinocyte, five days, choline-free medium, ±SD, * statistically significant, read-out: Protein
Procedure: as §1, §3, §4

[4] = Signs of cytotoxicity in / tolerance by keratinocytes; conditions: human, 24 hours exposure, read-out: concentration at which cells showed signs of cytotoxicity
Procedure: Effects of 24 hours exposure to 0.1 μM to 10 mM of citric acid, choline or the different citrate esters on keratinocyte DNA synthesis are shown in table 1. Rate of DNA synthesis calculated as cpm ^3 H thymidine incorporated into cellular DNA/μg of cell protein is expressed as % of control (no addition controls) ±SD. The actual amount of cpm/μg protein of the control is 1103 ±88.

[5] = 100 μM, 24 hours exposure, ±SD, * statistically significant compared to controls
[6] = 1000 μM, 24 hours exposure, ±SD, * statistically significant compared to controls
[7] = 10,000 μM, 24 hours exposure, ±SD, * statistically significant compared to controls

Compound `C[N+](C)(C)CCO` [Choline, choline] has an activity at 1 µM ([1]; 120 h, 1 μM, five days, choline-free medium, ±SD, * statistically significant) of 261 ± 5.6%, an activity at 10 µM ([1]; 120 h, 10 μM, five days, choline-free medium, ±SD, * statistically significant) of 313 ± 11.4% and an activity at 100 µM ([1]; 120 h, 100 μM, five days, choline-free medium, ±SD, * statistically significant) of 315 ± 29.3%. The activity at 1000 µM ([1]; 120 h, 1000 μM, five days, choline-free medium, ±SD, * statistically significant) was 297 ± 11.3%, the activity at 10000 µM ([1]; 120 h, 10,000 μM, five days, choline-free medium, ±SD, * statistically significant) was 270 ± 11.2% and the minimal effective concentration ([1]; read-out: lowest concentration that increased proliferation (both DNA synthesis and protein content)) was 1 µM. For the same compound, the activity at 0.1 µM ([2]; 24 h) was 125 ± 17.6%, the activity at 1 µM ([2]; 24 h) was 113 ± 12% and the activity at 10 µM ([2]; 24 h) was 109 ± 3.3%. The activity at 100 µM ([2]; 24 h) was 114 ± 12%, the activity at 1000 µM ([2]; 24 h) was 115 ± 24% and the activity at 10000 µM ([2]; 24 h) was 127 ± 10.7%. It also gave an activity at 1 µM ([3]; 120 h, 1 μM) of 197 ± 21.8%, an activity at 10 µM ([3]; 120 h, 10 μM) of 264 ± 50% and an activity at 100 µM ([3]; 120 h, 100 μM) of 276 ± 52%. The activity at 1000 µM ([3]; 120 h, 1000 μM) was 229 ± 29% and the activity at 10000 µM ([3]; 120 h, 10,000 μM) was 209 ± 13.7%.
For `CCOC(=O)CC(O)(CC(=O)OCC)C(=O)OCC` [TEC, triethylcitrate], the activity at 0.1 µM ([2]; 0.1 μM, 24 hours exposure, ±SD) was 112 ± 21.5%, the activity at 1 µM ([2]; 1.0 μM, 24 hours exposure, ±SD) was 112 ± 13.1% and the activity at 10 µM ([2]; 10 μM, 24 hours exposure, ±SD) was 79.1 ± 13.9%. The activity at 100 µM [2, 5] was 9.8 ± 2.3%, the activity at 1000 µM [2, 6] was 11.2 ± 9.2% and the activity at 10000 µM [2, 7] was 1.2 ± 0.02%. The minimal effective concentration ([2]; 24 hours exposure) was greater than 10 µM and the MCC at 24 h [4] was no less than 1 mM.
`CCCCOC(=O)CC(O)(CC(=O)OCCCC)C(=O)OCCCC` [TBC, tributylcitrate] gave an activity at 0.1 µM ([2]; 0.1 μM, 24 hours exposure, ±SD) of 106 ± 8.4%, an activity at 1 µM ([2]; 1.0 μM, 24 hours exposure, ±SD) of 100 ± 28% and an activity at 10 µM ([2]; 10 μM, 24 hours exposure, ±SD) of 68.2 ± 13%. The activity at 100 µM [2, 5] was 8.7 ± 5.5%, the activity at 1000 µM [2, 6] was 1.35 ± 0.1% and the activity at 10000 µM [2, 7] was 0.505%. It also gave a minimal effective concentration ([2]; 24 hours exposure) greater than 10 µM and an MCC at 24 h [4] of no less than 1 mM.

Source: patent US5571518A, “Cosmetic compositions containing tricholine citrate” (priority 1995, dated 1996)
